Consider one molecule from article PMC5218480 (PLoS ONE, 2017).

The test concerns MV-4-11 cells. Description: Gene expression microarray analysis (Affymetrix PrimeView) and GSEA. Format: cell-based, human. Also noted: RFU PODN (11730768_x_at) / Fold change /veh PODN (11730768_x_at) / RFU LINC00158 (11744669_a_at) / Fold change /veh LINC00158 (11744669_a_at) / RFU DUSP10 (11751237_a_at) / Fold change /veh DUSP10 (11751237_a_at) / RFU ID3 (11757404_x_at) / Fold change /veh ID3 (11757404_x_at) / RFU PLEKHG5 (11737974_s_at) / Fold change /veh PLEKHG5 (11737974_s_at) / RFU LRRC4B (11730491_at) / Fold change /veh LRRC4B (11730491_at) / RFU GIMAP4 (11747438_a_at) / Fold change /veh GIMAP4 (11747438_a_at) / RFU KRT8 (11758183_x_at) / Fold change /veh KRT8 (11758183_x_at) / RFU CNN1 (11734310_a_at) / Fold change /veh CNN1 (11734310_a_at) / RFU VPS37D (11726825_at) / Fold change /veh VPS37D (11726825_at) / RFU C10orf10 (11716522_x_at) / Fold change /veh C10orf10 (11716522_x_at) / RFU KIR2DL2 /// KIR2DL4 /// KIR2DL5A /// KIR2DL5B /// KIR2DS1 /// KIR2DS2 /// KIR2DS3 /// KIR2DS4 /// KIR3DL3 /// KIR3DL3 /// KIR3DS1 (11738374_at) / Fold change /veh KIR2DL2 /// KIR2DL4 /// KIR2DL5A /// KIR2DL5B /// KIR2DS1 /// KIR2DS2 /// KIR2DS3 /// KIR2DS4 /// KIR3DL3 /// KIR3DL3 /// KIR3DS1 (11738374_at) / RFU C1QL1 (11718748_at) / Fold change /veh C1QL1 (11718748_at) / RFU TMPRSS4 (11747572_a_at) / Fold change /veh TMPRSS4 (11747572_a_at) / RFU HAMP (11756126_x_at) / Fold change /veh HAMP (11756126_x_at) / RFU RNFT2 (11725882_a_at) / Fold change /veh RNFT2 (11725882_a_at) / RFU NR4A2 (11747474_a_at) / Fold change /veh NR4A2 (11747474_a_at) / RFU ABCC12 (11746883_a_at) / Fold change /veh ABCC12 (11746883_a_at) / RFU TMEM136 (11760407_x_at) / Fold change /veh TMEM136 (11760407_x_at) / RFU CLDN22 /// WWC2 (11732394_at) / Fold change /veh CLDN22 /// WWC2 (11732394_at) / RFU HLA-DPB1 (11760878_x_at) / Fold change /veh HLA-DPB1 (11760878_x_at) / RFU SPINT1 (11716480_a_at) / Fold change /veh SPINT1 (11716480_a_at) / RFU GAP43 (11754022_s_at) / Fold change /veh GAP43 (11754022_s_at) / RFU A4GNT (11735810_at) / Fold change /veh A4GNT (11735810_at) / RFU PRB3 (11715151_x_at) / Fold change /veh PRB3 (11715151_x_at) / RFU TUBB4B (11761932_at) / Fold change /veh TUBB4B (11761932_at) / RFU CAPN14 (11732068_a_at) / Fold change /veh CAPN14 (11732068_a_at) / RFU TMCC2 (11721928_a_at) / Fold change /veh TMCC2 (11721928_a_at) / RFU IRGQ (11745062_a_at) / Fold change /veh IRGQ (11745062_a_at) / RFU FAM174B (11720279_a_at) / Fold change /veh FAM174B (11720279_a_at) / RFU TMPRSS4 (11748680_a_at) / Fold change /veh TMPRSS4 (11748680_a_at) / RFU FAM212B (11763350_a_at) / Fold change /veh FAM212B (11763350_a_at) / RFU PLEKHG5 (11743358_a_at) / Fold change /veh PLEKHG5 (11743358_a_at) / RFU ZSCAN30 (11745921_a_at) / Fold change /veh ZSCAN30 (11745921_a_at) / RFU CMKLR1 (11741424_a_at) / Fold change /veh CMKLR1 (11741424_a_at) / RFU LOC101060620 /// MAPK8IP1 (11723275_at) / Fold change /veh LOC101060620 /// MAPK8IP1 (11723275_at) / RFU SPTSSB (11747773_x_at) / Fold change /veh SPTSSB (11747773_x_at) / RFU PRSS12 (11739890_at) / Fold change /veh PRSS12 (11739890_at) / RFU BIN1 (11741810_x_at) / Fold change /veh BIN1 (11741810_x_at) / RFU WNT11 (11732464_a_at) / Fold change /veh WNT11 (11732464_a_at) / RFU C10orf10 (11716521_a_at) / Fold change /veh C10orf10 (11716521_a_at) / RFU C5orf56 (11738089_at) / Fold change /veh C5orf56 (11738089_at) / RFU CYB561 (11721691_x_at) / Fold change /veh CYB561 (11721691_x_at) / RFU ANKRD19P (11752326_a_at) / Fold change /veh ANKRD19P (11752326_a_at) / RFU OR2T12 /// OR2T33 /// OR2T8 (11738714_s_at) / Fold change /veh OR2T12 /// OR2T33 /// OR2T8 (11738714_s_at) / RFU VCAN (11748164_a_at) / Fold change /veh VCAN (11748164_a_at) / RFU JSRP1 (11732532_at) / Fold change /veh JSRP1 (11732532_at) / RFU KRTAP10-11 (11738290_x_at) / Fold change /veh KRTAP10-11 (11738290_x_at) / RFU MYO3A (11730013_a_at) / Fold change /veh MYO3A (11730013_a_at) / RFU EBF3 (11725865_a_at) / Fold change /veh EBF3 (11725865_a_at) / RFU CAMK2N1 (11719241_x_at) / Fold change /veh CAMK2N1 (11719241_x_at) / RFU C5orf56 (11738088_a_at) / Fold change /veh C5orf56 (11738088_a_at) / RFU OLFML3 (11715873_a_at) / Fold change /veh OLFML3 (11715873_a_at) / RFU LOC100653217 /// NTM (11731650_a_at) / Fold change /veh LOC100653217 /// NTM (11731650_a_at) / RFU MAPK11 (11762145_a_at) / Fold change /veh MAPK11 (11762145_a_at) / RFU FIZ1 (11724087_x_at) / Fold change /veh FIZ1 (11724087_x_at) / RFU OASL (11726364_x_at) / Fold change /veh OASL (11726364_x_at) / RFU SOX15 (11748057_x_at) / Fold change /veh SOX15 (11748057_x_at) / RFU CD79A (11719716_a_at) / Fold change /veh CD79A (11719716_a_at) / RFU HIST1H1D (11736915_at) / Fold change /veh HIST1H1D (11736915_at) / RFU CASKIN2 (11723855_a_at) / Fold change /veh CASKIN2 (11723855_a_at) / RFU LOC730098 (11760151_x_at) / Fold change /veh LOC730098 (11760151_x_at) / RFU OR4N2 (11742367_at) / Fold change /veh OR4N2 (11742367_at) / RFU PRRT2 (11749266_a_at) / Fold change /veh PRRT2 (11749266_a_at) / RFU SNX32 (11753110_a_at) / Fold change /veh SNX32 (11753110_a_at) / RFU CDHR5 (11726645_a_at) / Fold change /veh CDHR5 (11726645_a_at) / RFU RCAN1 (11760418_a_at) / Fold change /veh RCAN1 (11760418_a_at) / RFU FAM167A (11723789_a_at) / Fold change /veh FAM167A (11723789_a_at) / RFU FAM26E (11764081_at) / Fold change /veh FAM26E (11764081_at) / RFU ISYNA1 (11749810_s_at) / Fold change /veh ISYNA1 (11749810_s_at) / RFU ACY1 (11761880_at) / Fold change /veh ACY1 (11761880_at) / RFU 11764098_at / Fold change /veh 11764098_at / RFU SAMD14 (11745864_x_at) / Fold change /veh SAMD14 (11745864_x_at) / RFU NPB (11741838_a_at) / Fold change /veh NPB (11741838_a_at) / RFU TMPRSS6 (11731388_a_at) / Fold change /veh TMPRSS6 (11731388_a_at) / RFU KRTAP10-2 (11738614_at) / Fold change /veh KRTAP10-2 (11738614_at) / RFU ARHGAP8 /// PRR5-ARHGAP8 (11727945_x_at) / Fold change /veh ARHGAP8 /// PRR5-ARHGAP8 (11727945_x_at) / RFU KRTAP5-7 /// NADSYN1 (11734609_at) / Fold change /veh KRTAP5-7 /// NADSYN1 (11734609_at) / RFU RASL12 (11751679_a_at) / Fold change /veh RASL12 (11751679_a_at) / RFU CDKN2B (11736163_a_at) / Fold change /veh CDKN2B (11736163_a_at) / RFU PRF1 (11729649_at) / Fold change /veh PRF1 (11729649_at) / RFU, ZNF638 /// ZNF638-IT1 / Fold change vs veh, ZNF638 /// ZNF638-IT1 / RFU, PANK3 / Fold change vs veh, PANK3 / RFU, SH3YL1 / Fold change vs veh, SH3YL1 / RFU, ZEB2 / Fold change vs veh, ZEB2 / RFU, NRIP1 / Fold change vs veh, NRIP1 / RFU, PTTG1IP / Fold change vs veh, PTTG1IP / RFU, CAPN2 / Fold change vs veh, CAPN2 / RFU, MED14 / Fold change vs veh, MED14 / RFU, SNORA58 / Fold change vs veh, SNORA58 / RFU, C1orf63 / Fold change vs veh, C1orf63 / RFU, LRRFIP1 / Fold change vs veh, LRRFIP1 / RFU, NDUFAF7 / Fold change vs veh, NDUFAF7 / RFU, SLC12A2 / Fold change vs veh, SLC12A2 / RFU, IBTK / Fold change vs veh, IBTK / RFU, ESF1 / Fold change vs veh, ESF1 / Fold change vs veh, TMEM50B / RFU, TAOK1 / Fold change vs veh, TAOK1 / RFU, ACBD3 / Fold change vs veh, ACBD3 / RFU, TMA16 / Fold change vs veh, TMA16 / RFU, RWDD3 / Fold change vs veh, RWDD3 / RFU, BCAT1 / Fold change vs veh, BCAT1 / RFU, EDEM3 / Fold change vs veh, EDEM3 / RFU, TMEM33 / Fold change vs veh, TMEM33 / RFU, WDR75 / Fold change vs veh, WDR75 / RFU, AHCTF1 / Fold change vs veh, AHCTF1 / RFU, TFRC / Fold change vs veh, TFRC / RFU, ZDHHC17 / Fold change vs veh, ZDHHC17 / RFU, NOM1 / Fold change vs veh, NOM1 / RFU, ARL8B / Fold change vs veh, ARL8B / RFU, ZBTB11 / Fold change vs veh, ZBTB11 / RFU, TAMM41 / Fold change vs veh, TAMM41 / RFU, KIAA1704 /// LOC100996395 / Fold change vs veh, KIAA1704 /// LOC100996395 / RFU, ING1 / Fold change vs veh, ING1 / RFU, TRMT61B / Fold change vs veh, TRMT61B / RFU, FUBP3 / Fold change vs veh, FUBP3 / RFU, TP53 / Fold change vs veh, TP53 / RFU, TNKS2 / Fold change vs veh, TNKS2 / RFU, ZFP14 / Fold change vs veh, ZFP14 / RFU, ACTR2 / Fold change vs veh, ACTR2 / RFU, PPP3R1 / Fold change vs veh, PPP3R1 / RFU, PIK3R1 / Fold change vs veh, PIK3R1 / RFU, HNRNPA1 / Fold change vs veh, HNRNPA1 / RFU, RNF170 / Fold change vs veh, RNF170 / RFU, ZNF28 / Fold change vs veh, ZNF28 / RFU, RNGTT / Fold change vs veh, RNGTT / RFU, OGT / Fold change vs veh, OGT / RFU, BRD1 / Fold change vs veh, BRD1 / RFU, MARS / Fold change vs veh, MARS / RFU, ZNF655 / Fold change vs veh, ZNF655 / RFU, FAHD1 / Fold change vs veh, FAHD1 / RFU, BDP1 / Fold change vs veh, BDP1 / RFU, LRRCC1 / Fold change vs veh, LRRCC1 / RFU, ARID1A / Fold change vs veh, ARID1A / RFU, ZNF146 / Fold change vs veh, ZNF146 / RFU, ZNF330 / Fold change vs veh, ZNF330 / RFU, GPN3 / Fold change vs veh, GPN3 / RFU, C9orf123 / Fold change vs veh, C9orf123 / RFU, N4BP2L2 / Fold change vs veh, N4BP2L2 / RFU, ARFIP1 / Fold change vs veh, ARFIP1 / RFU, FAM179B / Fold change vs veh, FAM179B / RFU, BCL10 / Fold change vs veh, BCL10 / RFU, UHRF1BP1L / Fold change vs veh, UHRF1BP1L / RFU, BET1 / Fold change vs veh, BET1 / RFU, CNOT2 / Fold change vs veh, CNOT2 / RFU, ZNF268 / Fold change vs veh, ZNF268 / Fold change vs veh, ZNF507 / RFU, DGCR2 / Fold change vs veh, DGCR2 / RFU, WDSUB1 / Fold change vs veh, WDSUB1 / Fold change vs veh, HSP90B1 /// MIR3652 / RFU, ADSS / Fold change vs veh, ADSS / RFU, GK / Fold change vs veh, GK / RFU, ZNF148 / Fold change vs veh, ZNF148 / RFU, TAF9 / Fold change vs veh, TAF9 / RFU, SLC1A5 / Fold change vs veh, SLC1A5 / RFU, SLMO2 / Fold change vs veh, SLMO2 / RFU, ABCC4 / Fold change vs veh, ABCC4 / RFU, LOC101060439 /// RAP1B / Fold change vs veh, LOC101060439 /// RAP1B / RFU, RFX7 / Fold change vs veh, RFX7 / RFU, GTPBP10 / Fold change vs veh, GTPBP10 / RFU, CNEP1R1 / Fold change vs veh, CNEP1R1 / RFU, BIVM-ERCC5 /// ERCC5 / Fold change vs veh, BIVM-ERCC5 /// ERCC5 / RFU, ILF3 / Fold change vs veh, ILF3 / RFU 11762660_at / Fold change /veh 11762660_at / RFU VCAN (11757783_s_at) / Fold change /veh VCAN (11757783_s_at) / RFU DDX43 (11728927_at) / Fold change /veh DDX43 (11728927_at) / RFU KRT8 (11758188_x_at) / Fold change /veh KRT8 (11758188_x_at) / RFU NKD1 (11759106_at) / Fold change /veh NKD1 (11759106_at) / RFU SRD5A1 (11742802_a_at) / Fold change /veh SRD5A1 (11742802_a_at) / RFU TPSAB1 /// TPSB2 (11721975_s_at) / Fold change /veh TPSAB1 /// TPSB2 (11721975_s_at) / RFU GSTM3 (11746129_a_at) / Fold change /veh GSTM3 (11746129_a_at) / RFU IL23R (11737362_x_at) / Fold change /veh IL23R (11737362_x_at) / RFU TMEM51 (11727254_a_at) / Fold change /veh TMEM51 (11727254_a_at) / RFU PIWIL2 (11732686_x_at) / Fold change /veh PIWIL2 (11732686_x_at) / RFU ORM1 (11744905_x_at) / Fold change /veh ORM1 (11744905_x_at) / RFU CCDC152 (11743942_at) / Fold change /veh CCDC152 (11743942_at) / RFU ECM1 (11717891_a_at) / Fold change /veh ECM1 (11717891_a_at) / RFU IL23R (11748794_a_at) / Fold change /veh IL23R (11748794_a_at) / RFU TNFAIP8L3 (11732012_x_at) / Fold change /veh TNFAIP8L3 (11732012_x_at) / RFU MBOAT4 (11741988_at) / Fold change /veh MBOAT4 (11741988_at) / RFU 11764193_at / Fold change /veh 11764193_at / RFU TMEM53 (11763286_at) / Fold change /veh TMEM53 (11763286_at) / RFU MAGEB2 (11727129_at) / Fold change /veh MAGEB2 (11727129_at) / RFU TMEM200A (11744735_a_at) / Fold change /veh TMEM200A (11744735_a_at) / RFU CCDC152 (11751479_a_at) / Fold change /veh CCDC152 (11751479_a_at) / RFU FAM211A (11726209_a_at) / Fold change /veh FAM211A (11726209_a_at) / RFU RGS16 (11746705_a_at) / Fold change /veh RGS16 (11746705_a_at) / RFU VCAN (11755009_s_at) / Fold change /veh VCAN (11755009_s_at) / RFU RHOB (11743442_s_at) / Fold change /veh RHOB (11743442_s_at) / RFU RGS16 (11720943_a_at) / Fold change /veh RGS16 (11720943_a_at) / RFU RGS16 (11720944_at) / Fold change /veh RGS16 (11720944_at) / RFU, VPS4B / Fold change vs veh, VPS4B / RFU, CREB1 / Fold change vs veh, CREB1 / RFU, DNAJC13 / Fold change vs veh, DNAJC13 / RFU, GNAQ / Fold change vs veh, GNAQ / RFU, CDK5R1 / Fold change vs veh, CDK5R1 / RFU, ZRANB3 / Fold change vs veh, ZRANB3 / RFU, CUL4A / Fold change vs veh, CUL4A / RFU, CCNY / Fold change vs veh, CCNY / RFU, UFL1 / Fold change vs veh, UFL1 / RFU, COG3 / Fold change vs veh, COG3 / RFU, DIAPH2 / Fold change vs veh, DIAPH2 / RFU, SKA2 / Fold change vs veh, SKA2 / RFU, AFF3 / Fold change vs veh, AFF3 / RFU, LMF1 / Fold change vs veh, LMF1 / RFU, IPO11 / Fold change vs veh, IPO11 / RFU, DFFB / Fold change vs veh, DFFB / RFU, FOXP1 / Fold change vs veh, FOXP1 / RFU, CARD8 / Fold change vs veh, CARD8 / RFU, STRN3 / Fold change vs veh, STRN3 / RFU, ADK / Fold change vs veh, ADK / RFU, RASSF2 / Fold change vs veh, RASSF2 / RFU, WIPF1 / Fold change vs veh, WIPF1 / RFU, LARP1B / Fold change vs veh, LARP1B / RFU, RASA1 / Fold change vs veh, RASA1 / RFU, RB1 / Fold change vs veh, RB1 / RFU, PPFIA1 / Fold change vs veh, PPFIA1 / RFU, MAT2A / Fold change vs veh, MAT2A / RFU, CCT5 / Fold change vs veh, CCT5 / RFU, WDR92 / Fold change vs veh, WDR92 / RFU, CUX1 / Fold change vs veh, CUX1 / RFU, TTC7A / Fold change vs veh, TTC7A / RFU, TMEM135 / Fold change vs veh, TMEM135 / RFU, DEPTOR / Fold change vs veh, DEPTOR / RFU, CPM / Fold change vs veh, CPM / RFU, DNAJB6 / Fold change vs veh, DNAJB6 / RFU, CACNA2D3 / Fold change vs veh, CACNA2D3 / RFU, DTX4 / Fold change vs veh, DTX4 / RFU, TFCP2 / Fold change vs veh, TFCP2 / RFU, GMCL1 /// GMCL1P1 / Fold change vs veh, GMCL1 /// GMCL1P1 / RFU, AEBP2 / Fold change vs veh, AEBP2 / RFU, SNHG1 /// SNORD22 /// SNORD25 /// SNORD26 /// SNORD27 /// SNORD28 /// SNORD29 /// SNORD31 / Fold change vs veh, SNHG1 /// SNORD22 /// SNORD25 /// SNORD26 /// SNORD27 /// SNORD28 /// SNORD29 /// SNORD31 / Fold change (Aza/veh), C12orf56 (ProbeSet 11735607_a_at) / Fold change (ACY-1035/veh), C12orf56 (ProbeSet 11735607_a_at) / Fold change (Aza/veh), FGFR1OP (ProbeSet 11751329_s_at) / Fold change (ACY-1035/veh), FGFR1OP (ProbeSet 11751329_s_at) / Fold change (Aza/veh), VPS36 (ProbeSet 11739960_a_at) / Fold change (ACY-1035/veh), VPS36 (ProbeSet 11739960_a_at) / RFU SYPL1 (11715823_x_at) / Fold change /veh SYPL1 (11715823_x_at) / RFU IGFBP7 (11715501_s_at) / Fold change /veh IGFBP7 (11715501_s_at) / RFU REEP3 (11722064_at) / Fold change /veh REEP3 (11722064_at) / RFU IGLL1 (11728026_x_at) / Fold change /veh IGLL1 (11728026_x_at): dose or concentration left out as unconfirmed. Conditions: ProbeSet 11763895_x_at; LIST B.

As for `Nc1ccc(-c2cccs2)cc1NC(=O)c1ccc2c(c1)cc(C1CC1)n2CCN1CCOCC1` [ACY-1035], the “RFU, SNORA58” value was 14.97 RFU.
